# Measurements as given in US9139523B2, “5-HT2B receptor antagonists” (Janssen Pharmaceutica, NV, priority 2010, dated 2015).
# Columns and labels:
# 5HT1A = biological target: T1, 5HT1A (Homo sapiens, UniProt P08908); assay: Competitive radioligand binding, 5HT1A; conditions: HEK293 membranes, 3H-8-OH-DPAT 0.5 nM; read-out: pIC50 5HT1A (converted)
# T1 construct: expressed in transfected cells; host or cells: HEK293 (membrane fraction)
# T1 sequence (P08908 1-422): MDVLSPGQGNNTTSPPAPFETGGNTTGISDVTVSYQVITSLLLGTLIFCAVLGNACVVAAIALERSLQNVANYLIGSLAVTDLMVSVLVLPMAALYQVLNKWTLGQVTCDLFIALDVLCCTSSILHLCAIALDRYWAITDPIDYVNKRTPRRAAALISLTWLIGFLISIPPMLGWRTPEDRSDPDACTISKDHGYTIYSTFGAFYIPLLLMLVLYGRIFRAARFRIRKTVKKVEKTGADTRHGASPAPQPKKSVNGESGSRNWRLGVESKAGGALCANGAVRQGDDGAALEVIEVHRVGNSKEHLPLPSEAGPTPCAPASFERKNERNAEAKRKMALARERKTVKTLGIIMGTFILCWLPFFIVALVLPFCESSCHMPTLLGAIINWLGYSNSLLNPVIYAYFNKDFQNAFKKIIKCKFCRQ
# Protocol: (§1) Competitive radioligand binding assays were used to determine the affinity of the test compounds for a particular receptor. Various concentrations of the non-labelled test compound were added to the incubation mixture with the membrane fraction, containing the receptor of interest, and a fixed low concentration (nM) of the radioligand. During the incubation the radioligand bound to the receptor, but this was inhibited by the non-labelled test compound in proportion to its binding affinity and concentration.
# (§2) Cell lines were established that stably express the human variant of the receptor under investigation after transfection with the appropriate cDNA (Table 1). Transfected cells were grown under standard culture conditions, and membrane fractions were obtained upon centrifugation and homogenisation of the cells. Optimal membrane dilutions for binding studies were determined and aliquots were stored at −70° C. until use. In a 96-well plate format, the appropriate radioligand was added to the membrane preparation containing the receptor under investigation. Compound solutions were prepared in DMSO, and diluted 100-fold into the multiwell plate to a final test concentration of 10^−9 to 10^−5 M. After incubation with the test compound, the unbound radioligand was removed by filtration on G/F filters with a Filtermate 96. Microscint™ was added to the washed filter plates and the radioactivity bound to the receptor was measured by liquid scintillation counting in a TopCount (Packard). To measure the Non-Specific Binding (NSB), a high concentration of the non-radiolabeled ligand was added to wells containing the membrane fraction and the radioligand.
# (§3) Using in house developed software, a best-fit curve was fitted by a minimum sum of squares method to the plot of % inhibition vs. concentration of the test compound. From this, the pIC50 value (inhibitory concentration causing 50% displacement of specific binding) was determined, as well as an estimate of the slope of the plot (Hill coefficient).
# 5HT2C = biological target: T2, 5HT2C (Homo sapiens, UniProt P28335); assay: Competitive radioligand binding, 5HT2C; conditions: CHO membranes, 3H-mesulergin 1 nM; read-out: pIC50 5HT2C (converted)
# T2 construct: expressed in transfected cells; host or cells: CHO (membrane fraction)
# T2 sequence (P28335 33-458): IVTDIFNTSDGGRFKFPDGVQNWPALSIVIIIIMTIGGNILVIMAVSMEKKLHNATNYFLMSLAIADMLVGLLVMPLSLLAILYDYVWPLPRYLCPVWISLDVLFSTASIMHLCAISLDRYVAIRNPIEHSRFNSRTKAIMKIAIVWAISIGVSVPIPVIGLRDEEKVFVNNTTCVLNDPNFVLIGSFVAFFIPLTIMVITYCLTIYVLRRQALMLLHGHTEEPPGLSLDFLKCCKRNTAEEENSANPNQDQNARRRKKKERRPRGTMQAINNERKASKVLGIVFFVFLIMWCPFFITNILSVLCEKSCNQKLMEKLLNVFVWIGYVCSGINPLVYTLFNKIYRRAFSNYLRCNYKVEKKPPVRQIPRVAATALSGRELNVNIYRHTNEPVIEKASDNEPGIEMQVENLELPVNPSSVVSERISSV
# Protocol: as §1, §2
# (§4) From this, the pIC50 value (inhibitory concentration causing 50% displacement of specific binding) was determined, as well as an estimate of the slope of the plot (Hill coefficient).
# 5HT2A = biological target: T3, 5HT2A (Homo sapiens, UniProt P28223); assay: Competitive radioligand binding, 5HT2A; conditions: NIH3T3 membranes, 3H-ketanserin 2 nM; read-out: pIC50 5HT2A (converted)
# T3 construct: expressed in transfected cells; host or cells: NIH3T3 (membrane fraction)
# Protocol: as §1, §2, §4
# Alpha2A = biological target: T4, Alpha2A (Homo sapiens, UniProt P08913); assay: Competitive radioligand binding, Alpha2A; conditions: CHO membranes, 3H-rauwolscine 1 nM; for IC50: read-out: pIC50 Alpha2A (converted)
# T4 construct: expressed in transfected cells; host or cells: CHO (membrane fraction)
# T4 sequence (P08913 1-465): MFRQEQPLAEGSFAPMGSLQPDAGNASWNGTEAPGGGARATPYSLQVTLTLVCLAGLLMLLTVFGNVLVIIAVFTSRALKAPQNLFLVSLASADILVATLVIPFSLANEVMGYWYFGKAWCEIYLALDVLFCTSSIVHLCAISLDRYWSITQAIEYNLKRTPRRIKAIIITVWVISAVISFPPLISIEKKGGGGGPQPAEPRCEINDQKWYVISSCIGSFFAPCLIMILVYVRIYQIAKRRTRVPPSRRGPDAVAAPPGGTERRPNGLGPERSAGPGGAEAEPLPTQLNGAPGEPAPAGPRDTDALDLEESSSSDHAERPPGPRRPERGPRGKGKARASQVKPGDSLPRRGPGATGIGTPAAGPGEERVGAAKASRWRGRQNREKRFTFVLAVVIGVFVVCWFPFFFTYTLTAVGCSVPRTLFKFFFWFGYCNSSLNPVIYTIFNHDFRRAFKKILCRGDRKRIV
# Protocol: as §1, §2
# Alpha2B = biological target: T5, Alpha2B (Homo sapiens, UniProt P18089); assay: Competitive radioligand binding, Alpha2B; conditions: CHO membranes, 3H-rauwolscine 1 nM; for IC50: read-out: pIC50 Alpha2B (converted)
# T5 construct: expressed in transfected cells; host or cells: CHO (membrane fraction)
# T5 sequence (P18089 1-450): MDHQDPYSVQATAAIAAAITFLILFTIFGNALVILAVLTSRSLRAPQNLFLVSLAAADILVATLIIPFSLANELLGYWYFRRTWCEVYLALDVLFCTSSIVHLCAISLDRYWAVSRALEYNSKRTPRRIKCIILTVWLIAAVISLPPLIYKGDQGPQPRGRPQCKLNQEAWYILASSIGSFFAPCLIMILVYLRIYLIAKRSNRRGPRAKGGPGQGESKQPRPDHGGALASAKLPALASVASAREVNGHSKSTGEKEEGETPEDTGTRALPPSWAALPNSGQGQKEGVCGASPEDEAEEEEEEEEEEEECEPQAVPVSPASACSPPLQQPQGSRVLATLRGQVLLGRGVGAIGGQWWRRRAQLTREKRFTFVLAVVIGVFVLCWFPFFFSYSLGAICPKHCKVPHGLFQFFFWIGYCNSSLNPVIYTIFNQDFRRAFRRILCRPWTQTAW
# Protocol: as §1, §2
# D2L = biological target: T6, D2L (Homo sapiens, UniProt P14416); assay: Competitive radioligand binding, D2L; conditions: CHO membranes, 3H-spiperone 0.2 nM; for IC50: read-out: pIC50 D2L (converted)
# T6 construct: expressed in transfected cells; host or cells: CHO (membrane fraction)
# Protocol: as §1, §2, §3
# T3 sequence (P28223 whole entry): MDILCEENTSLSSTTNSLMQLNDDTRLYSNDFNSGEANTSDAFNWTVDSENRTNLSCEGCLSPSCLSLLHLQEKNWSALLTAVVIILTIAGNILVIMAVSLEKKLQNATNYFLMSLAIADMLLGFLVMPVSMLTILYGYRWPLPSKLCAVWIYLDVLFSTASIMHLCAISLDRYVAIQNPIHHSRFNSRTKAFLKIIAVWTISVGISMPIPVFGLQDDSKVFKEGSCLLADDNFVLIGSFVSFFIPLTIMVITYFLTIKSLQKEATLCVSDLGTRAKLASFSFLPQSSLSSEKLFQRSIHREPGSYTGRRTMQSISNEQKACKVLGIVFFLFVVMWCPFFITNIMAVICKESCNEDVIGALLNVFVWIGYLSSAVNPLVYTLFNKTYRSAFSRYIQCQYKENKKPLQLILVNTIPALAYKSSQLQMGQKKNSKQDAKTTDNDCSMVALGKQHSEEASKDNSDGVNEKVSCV
# T6 sequence (P14416 whole entry): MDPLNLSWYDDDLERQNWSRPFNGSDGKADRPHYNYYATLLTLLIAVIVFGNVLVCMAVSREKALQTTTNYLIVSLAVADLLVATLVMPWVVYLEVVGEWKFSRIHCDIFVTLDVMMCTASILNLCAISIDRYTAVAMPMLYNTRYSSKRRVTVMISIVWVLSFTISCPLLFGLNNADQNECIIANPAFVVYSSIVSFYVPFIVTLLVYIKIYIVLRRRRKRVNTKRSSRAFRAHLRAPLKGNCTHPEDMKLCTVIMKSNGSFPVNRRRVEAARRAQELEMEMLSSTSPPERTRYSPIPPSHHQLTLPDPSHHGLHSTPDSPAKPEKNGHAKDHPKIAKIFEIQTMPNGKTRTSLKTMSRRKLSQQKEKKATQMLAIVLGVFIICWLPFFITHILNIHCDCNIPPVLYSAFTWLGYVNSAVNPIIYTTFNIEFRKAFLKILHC
Structure (SMILES),IC50 (5HT1A),IC50 (5HT2C),IC50 (5HT2A),IC50 (Alpha2A),IC50 (Alpha2B),IC50 (D2L),pIC50 D2L (D2L),pIC50 Alpha2A (Alpha2A),pIC50 Alpha2B (Alpha2B)
"COc1cc(N)c(Cl)cc1C(=O)N[C@@H]1CCN(CCCOc2ccc(F)cc2)C[C@H]1F (racemic) [(±)-7, trans-4-amino-5-chloro-N-{3-fluoro-1-[3-(4-fluorophenoxy)-propyl]-piperidin-4-yl}-2-methoxybenzamide]",1.82 µM,1.82 µM,0.112 µM,3.63 µM,2.51 µM,4.57 µM,–,–,–
"COc1cc(N)c(Cl)cc1C(=O)N[C@H]1CCN(CCCOc2ccc(F)cc2)C[C@H]1F (racemic) [(±)-12, cis-4-amino-5-chloro-N-{3-fluoro-1-[3-(4-fluorophenoxy)-propyl]-piperidin-4-yl}-2-methoxybenzamide]",4.17 µM,4.37 µM,0.363 µM,4.79 µM,2.51 µM,4.68 µM,–,–,–
"COc1cc(N)c(Cl)cc1C(=O)NC1CCN(CCCOc2ccc(F)cc2)CC1(F)F (racemic) [(±)-17, 4-amino-5-chloro-N-{3,3-difluoro-1-[3-(4-fluorophenoxy)-propyl]-piperidin-4-yl}-2-methoxybenzamide]",7.94 µM,4.68 µM,1.95 µM,> 10 µM,> 10 µM,10.5 µM,–,–,–
"COc1cc(N)c(Cl)cc1C(=O)N[C@@H]1CCN(CCCOc2ccc(F)cc2)C[C@H]1F (single isomer, unassigned) [(+)-7, trans-4-amino-5-chloro-N-{3-fluoro-1-[3-(4-fluorophenoxy)-propyl]-piperidin-4-yl}-2-methoxybenzamide]",0.676 µM,1.23 µM,0.0708 µM,> 10 µM,2.63 µM,2.75 µM,–,–,–
"COc1cc(N)c(Cl)cc1C(=O)N[C@H]1CCN(CCCOc2ccc(F)cc2)C[C@H]1F (single isomer, unassigned) [(+)-12, cis-4-amino-5-chloro-N-{3-fluoro-1-[3-(4-fluorophenoxy)-propyl]-piperidin-4-yl}-2-methoxybenzamide]",0.741 µM,5.01 µM,0.324 µM,–,3.39 µM,–,5.32,–,–
"COc1cc(N)c(Cl)cc1C(=O)N[C@@H]1CCN(CCCOc2ccc(F)cc2)C[C@H]1F (single isomer, unassigned) [(−)-7, trans-4-amino-5-chloro-N-{3-fluoro-1-[3-(4-fluorophenoxy)-propyl]-piperidin-4-yl}-2-methoxybenzamide]",1.1 µM,3.72 µM,0.759 µM,7.76 µM,6.03 µM,7.94 µM,–,–,–
"COc1cc(N)c(Cl)cc1C(=O)N[C@H]1CCN(CCCOc2ccc(F)cc2)C[C@H]1F (single isomer, unassigned) [(−)-12, cis-4-amino-5-chloro-N-{3-fluoro-1-[3-(4-fluorophenoxy)-propyl]-piperidin-4-yl}-2-methoxybenzamide]",1.86 µM,6.61 µM,0.49 µM,8.13 µM,5.25 µM,4.79 µM,–,–,–
"COc1cc(N)c(Cl)cc1C(=O)NC1CCN(CCCOc2ccc(F)cc2)CC1(F)F (single isomer, unassigned) [Compound (−)-17, 4-amino-5-chloro-N-{3,3-difluoro-1-[3-(4-fluorophenoxy)-propyl]-piperidin-4-yl}-2-methoxybenzamide]",> 10 µM,6.61 µM,1.74 µM,–,–,–,<5,<5,<5
"COc1cc(N)c(Cl)cc1C(=O)NC1CCN(CCCOc2ccc(F)cc2)CC1(F)F (single isomer, unassigned; (+)) [(+)-17, 4-amino-5-chloro-N-{3,3-difluoro-1-[3-(4-fluorophenoxy)-propyl]-piperidin-4-yl}-2-methoxybenzamide]",5.62 µM,> 10 µM,2.57 µM,> 10 µM,> 10 µM,> 10 µM,–,–,–
